The values below are quoted from earlier work in patent EP3731816B1, “SOLID ORAL PHARMACEUTICAL COMPOSITIONS COMPRISING APIXABAN” (Sanovel Ilac Sanayi ve Ticaret A.S., priority 2017, dated 2019).

For data set [1] the following is noted: at 24 °C.
For data set [2] the following is noted: single 10 mg dose.

The structures appear in SMILES notation. Converted amounts (≈) assume the structure as drawn.

As to `COc1ccc(-n2nc(C(N)=O)c3c2C(=O)N(c2ccc(N4CCCCC4=O)cc2)CC3)cc1` [Apixaban, 1-(4-methoxyphenyl)-7-oxo-6-[4-(2-oxopiperidin-1-yl)phenyl]-4,5,6,7-tetrahydro-1H-pyrazolo[3,4-c]pyridine-3-carboxamide], the solubility in water in data set [1] is on record as 0.028 mg/mL (≈ 60.9 µM). In addition, the oral bioavailability result in data set [2] is recorded as “about 50%”.
